This is an account of results in patent US6436954B1, “Benzoquinolizidine and benzoindolizidine derivatives and therapeutic uses thereof” (priority 1998, dated 2002).

For orientation: melting point means the temperature of the solid-liquid transition. As for `O[C@@H]1c2ccccc2CN2CCC[C@@H]12` (relative stereo), the melting point lay within 131 to 133 °C.
